Assays:
[1] = target: T1, Prothrombin (Homo sapiens, UniProt P00734); test: Compound was evaluated for the inhibition of thrombin using the synthetic substrate chromozym TH
[2] = target: T1, Prothrombin; test: Compound was evaluated for percent inhibition of thrombin using the synthetic substrate chromozym TH at 100 uM
[3] = Compound was evaluated for IC50 ratio between human plasmin and thrombin
[4] = Compound was evaluated for IC50 ratio between human t-PA and thrombin

Row | Structure (SMILES) | IC50 [1] [µM] | inhibition [2] [%] | Selectivity [3] | Selectivity [4]
1 | CN[C@H](Cc1ccccc1)C(=O)N1CCC[C@H]1C(=O)N[C@H](C=O)CCCN=C(N)N [EFEGATRAN] | 0.046 |  |  | 
2 | CNC(Cc1ccccc1)C(=O)N[C@@H]1CCCC[C@H]1C(=O)N[C@@H](C=O)CCCN=C(N)N (stereo partly drawn) | 4 | 100 | 38 | 1000
3 | CNC(Cc1ccccc1)C(=O)N[C@@H]1CCCC[C@@H]1C(=O)N[C@@H](C=O)CCCN=C(N)N (stereo partly drawn) |  | 1 |  | 
4 | CNC(Cc1ccc2ccccc2c1)C(=O)N[C@H]1CCCC[C@H]1C(=O)N[C@@H](C=O)CCCN=C(N)N (stereo partly drawn) | 0.022 |  | 4540 | > 5000
5 | CNC(Cc1ccccc1)C(=O)N[C@H]1CCCC[C@@H]1C(=O)N[C@@H](C=O)CCCN=C(N)N (stereo partly drawn) |  | 39 |  | 
6 | CN[C@H](Cc1ccccc1)C(=O)N1CCC[C@H]1C(=O)N[C@H](C=O)CCCNC(=N)N |  |  | 413 | 

Continued, values first:

Row | IC50 [1] [µM] | inhibition [2] [%] | Selectivity [3] | Selectivity [4] | Structure (SMILES)
7 |  | 36 |  |  | CN(Cc1ccccc1)C(=O)C1CCCCC1C(=O)N[C@@H](C=O)CCCN=C(N)N (stereo partly drawn)
8 | 84 | 100 |  |  | CN(CCc1ccccc1)C(=O)C1CCCCC1C(=O)N[C@@H](C=O)CCCN=C(N)N (stereo partly drawn)
9 | 12 | 100 | 67 | 308 | CN(CCc1ccccc1)C(=O)[C@@H]1CCCC[C@@H]1C(=O)N[C@@H](C=O)CCCN=C(N)N
10 |  | 14 |  |  | CN(CCc1ccccc1)C(=O)[C@@H]1CCCC[C@H]1C(=O)N[C@@H](C=O)CCCN=C(N)N
11 |  | 8 |  |  | CN(Cc1ccccc1)C(=O)[C@@H]1CCCC[C@H]1C(=O)N[C@@H](C=O)CCCN=C(N)N
12 |  | 15 |  |  | CN(CCc1ccccc1)C(=O)[C@H]1CCCC[C@@H]1C(=O)N[C@@H](C=O)CCCN=C(N)N
13 |  | 6 |  |  | CNC(Cc1ccccc1)C(=O)N[C@H]1CCCC[C@H]1C(=O)N[C@@H](C=O)CCCN=C(N)N (stereo partly drawn)
14 |  | 27 |  |  | CN(Cc1ccccc1)C(=O)[C@H]1CCCC[C@@H]1C(=O)N[C@@H](C=O)CCCN=C(N)N

— ChEMBL document CHEMBL1130993, “1,2-disubstituted cyclohexane derived tripeptide aldehydes as novel selective thrombin inhibitors” (Bioorg Med Chem Lett, 1998)
